Experimental findings from patent US9707284B2, “Formulations of peptides and chloroquines for the treatment of pathogenic immune responses in immune mediated diseases” (The Regents of the University of California, priority 2006, dated 2017) are described below.

Where a SMILES comes first, the peptide text is derived from it.

One series concerns T cells. To be noted: human, in vivo.
The nature of series [1]: Phase II clinical trial with dnaJP1 in RA: safety, adverse events. In kind it is in vivo, human. The following applies: 25 mg per os daily, 168 days. On the procedure:
A double-blinded, placebo-controlled ITT trial was designed to test for the first time if immune tolerization to dnaJp1 observed in the trial translated into clinical amelioration of the disease. dnaJP1 was tested as a first line inducer of remission in patients with early RA.

Take `C[C@H](NC(=O)[C@H](C)NC(=O)[C@H](Cc1c[nH]cn1)NC(=O)CNC(=O)[C@H](Cc1ccc(O)cc1)NC(=O)[C@H](CCC(N)=O)NC(=O)[C@H](CC(=O)O)NC(=O)[C@H](Cc1ccc(O)cc1)NC(=O)[C@H](C)NC(=O)[C@H](C)NC(=O)[C@H](CCCNC(=N)N)NC(=O)[C@H](CCCCN)NC(=O)[C@@H](N)CCC(N)=O)C(=O)N[C@@H](Cc1ccccc1)C(=O)N[C@@H](CCC(=O)O)C(=O)O` [dnaJP1, QKRAAYDQYGHAAFE] (H-QKRAAYDQYGHAAFE-OH): the “ability of T cells to respond to the recall antigen Tetanus Toxoid” value in the series on T cells is reported as “remained intact”. Further, the safety and tolerability entry in series [1] is “safe and well tolerated”.
